Test results taken from patent US10730866B2, “Indole derivatives and use thereof” (Purdue Pharma L.P., priority 2014, dated 2020).

Key:
human Nav1.7 = human Nav1.7 (Homo sapiens (Human), UniProt Q15858); assay: FLIPR or FLIPR TETRA sodium dye assay for sodium channel blocking activity; format: cell-based; conditions: recombinant HEK293 cells expressing human Nav1.7
Method: In vitro assays were performed in a recombinant cell line expressing cDNA encoding the alpha subunit (Nav1.7, SCN9a, PN1, NE) of human Nav1.7 (Accession No. NM_002977). The cell line was provided by investigators at Yale University (Cummins et al, J. Neurosci. 18(23): 9607-9619 (1998)). For dominant selection of the Nav1.7-expressing clones, the expression plasmid co-expressed the neomycin resistance gene. The cell line was constructed in the human embryonic kidney cell line, HEK293, under the influence of the CMV […] promoter, and stable clones were selected using limiting dilution cloning and antibiotic selection using the neomycin analogue, G418. Recombinant beta and gamma subunits were not introduced into this cell line. Additional cell lines expressing recombinant Nav1.7 cloned from other species can also be used, alone or in combination with various beta subunits, gamma subunits or chaperones.
Unless otherwise noted, cell culture reagents were purchased from Mediatech of Herndon, Va. The recombinant Nav1.7/HEK293 cells were routinely cultured in growth medium consisting of Dulbecco's […] essential medium containing 10% fetal bovine serum (FBS, Hyclone, Thermo Fisher Scientific, Logan, Utah), 100 U/mL penicillin, 100 μg/mL streptomycin, 2-4 mM L-glutamine, and […] G418. For natural, non-recombinant cell lines, the selective antibiotic was omitted, and additional media formulations can be applied as needed.
The final buffer consisted of 20 mM Hepes, pH 7.3, 1.261 mM CaCl2, 0.493 mM MgCl2, 0.407 mM Mg(SO)4, 5.33 mM KCl, 0.441 mM KH2PO4, 137 mM NaCl, 0.336 mM Na2HPO4 and […] D-glucose (Hanks et al., Proc. Soc. Exp. Biol. Med. 71:196 (1949)), and the simple formulation was typically the basic buffer throughout the assay (i.e., all wash and addition steps).
The fluorescence indicator used in the primary fluorescence assay was the cell permeant version of CoroNa™ Green (Invitrogen, Molecular Probes, Eugene, Oreg.), a dye that emits light in the fluorescence range (Harootunian et al., J. Biol. Chem. 264(32):19458-19467 (1989)). The intensity of this emission, but not the wavelength range, is increased when the dye is exposed to Na^+ ions, which it can bind with partial selectivity. Cells expressing Nav1.7 or other sodium channels were loaded with the CoroNa™ Green dye immediately in advance of the fluorescence assay, and then, after agonist stimulation, the mobilization of Na^+ ions was detected as the Na^+ ions flowed from the extracellular fluid into the cytoplasm through the activated sodium channel pores. The dye was stored in the dark as a lyophilized powder, and then an aliquot was dissolved immediately before the cell loading procedure, according to the instructions of the manufacturer, to a stock concentration of 10 mM in DMSO. It was then diluted in the assay buffer to a 4× concentrated working solution, so that the final concentration of dye in the cell loading buffer was 5 μM.
In the fluorescence assays, two agonists were used in combination, namely 1) veratridine; and 2) the venom from the yellow scorpion, Leiurus quinquestriatus hebraeus. Veratridine is an alkaloid small molecule that facilitates the capture of channel openings by inhibiting inactivation, and the scorpion venom is a natural preparation that includes peptide toxins selective for different subsets of voltage-gated sodium channels. These scorpion toxins inhibit the fast inactivation of their cognate target channels. Stock solutions of the agonists were prepared to 40 mM in DMSO (veratridine) and 1 mg/mL in dH2O (scorpion venom), and then diluted to make a 4× or 2× stock (depending on the particular assay) in assay buffer, the final concentration being 100 μM (veratridine) and 10 μg/mL (scorpion venom). Both of the agonists were purchased from Sigma Aldrich, St. Louis, Mo.
Test compounds were dissolved in DMSO to yield 10 mM stock solutions. […]

hNav1.7 = hNav1.7 (Homo sapiens (Human), UniProt Q15858); assay: Electrophysiology (EP) assay, whole-cell patch clamp; format: cell-based; conditions: hNav1.7 expressing HEK-293 cells; affinity for inactivated state; read-out: Nav1.7 Activity (μM) EP assay Ki
Method: The hNav1.7 expressing HEK-293 cells are plated on 35 mm culture dishes pre-coated with poly-D-lysine in standard DMEM culture media (Mediatech, Inc., Herndon, Va.) and incubated in a 5% CO2 incubator at 37° C. Cultured cells are used approximately 12-48 hours after plating.
The hNav1.7 expressing HEK-293 cells are plated on tissue culture flasks in standard DMEM culture media (Mediatech, Inc.) and incubated in a 5% CO2 incubator at 37° C. Cultured cells are used approximately 12-48 hours after plating.
On the day of experimentation, the 35 mm dish is placed on the stage of an inverted microscope equipped with a perfusion system that continuously perfuses the culture dish with fresh recording media. A gravity driven superfusion system is used to apply test solutions directly to the cell under evaluation. This “shooter” system consists of an array of glass pipettes connected to a motorized horizontal translator. The outlet of the shooter is positioned approximately 100 μm from the cell of interest.
Whole cell currents are recorded using the whole-cell patch clamp configuration using an Axopatch 200B amplifier (Axon Instruments, Foster City Calif.), 1322A A/D converter (Axon Instruments) and pClamp software (v. 8; Axon Instruments) and stored on a personal computer. Gigaseals are formed and the whole-cell configuration is established in voltage clamp mode, and membrane currents generated by hNav1.7 channels are recorded. Borosilicate glass pipettes with resistance values between 1.5 and 2.0 MΩ when filled with pipette solution are used and series resistance (<5 MΩ) is compensated by 75-80%. Signals are sampled at 50 kHz and low pass filtered at 3 kHz.
Whole cell currents are recorded using the whole-cell patch clamp configuration using an Patchliner (Nanion Technologies, Munich Germany), EPC 10 quadro amplifiers (HEKA, Bellmore, N.Y.) and PatchControl HT 10905 (Nanion Technologies) and PatchMaster v2x73 software (HEKA) and stored on a personal computer. Gigaseals are formed and the whole-cell configuration is established in voltage clamp mode, and membrane currents generated by hNav1.7 are recorded. NPC-16 chips have resistance values between 1.0 and 2.0 MΩ when filled with pipette solution and series resistance (<5 MΩ). Signals are sampled at 25 kHz and low pass filtered at 3 kHz.
After establishing the whole-cell configuration in voltage clamp mode, voltage protocols are run to establish the 1) test potential (Vmax), 2) holding potential (Vh), and 3) the conditioning potential for each cell.
After establishing the whole-cell configuration in voltage clamp mode, a standard I-V protocol is run to determine the potential at which the maximal current (Imax) is elicited. This potential is the test potential (Vt). To determine a conditioning potential at which 100% of channels are in the inactivated state, a standard steady-state inactivation (SSIN) protocol is run using a series of fifteen 100 ms-long depolarizing prepulses, incrementing in 10 mV steps, immediately followed by a 5 ms testing pulse to Vmax. This protocol also permits determination of the holding potential at which all channels are in the resting state.
For compounds causing significant retardation of recovery from inactivation, an estimate of the affinity for the inactivated state of the channel (Ki) is generated using the following protocol. From the negative, no residual inactivation, holding potential, the cell is depolarized to the conditioning voltage for 2-5 seconds, returned to the negative holding potential for 10-20 ms to relieve fast inactivation and then depolarized to the test potential for ˜15 ms. This voltage protocol is repeated every 10-15 seconds, first to establish a baseline in the absence of the test compound, then in the presence of the test compound.
After a stable baseline is established, the test compound is applied and block of the current elicited by the test pulse assessed. […]

hNav1.7, sequence (Q15858 other isoform, or with tags, fused parts or gaps): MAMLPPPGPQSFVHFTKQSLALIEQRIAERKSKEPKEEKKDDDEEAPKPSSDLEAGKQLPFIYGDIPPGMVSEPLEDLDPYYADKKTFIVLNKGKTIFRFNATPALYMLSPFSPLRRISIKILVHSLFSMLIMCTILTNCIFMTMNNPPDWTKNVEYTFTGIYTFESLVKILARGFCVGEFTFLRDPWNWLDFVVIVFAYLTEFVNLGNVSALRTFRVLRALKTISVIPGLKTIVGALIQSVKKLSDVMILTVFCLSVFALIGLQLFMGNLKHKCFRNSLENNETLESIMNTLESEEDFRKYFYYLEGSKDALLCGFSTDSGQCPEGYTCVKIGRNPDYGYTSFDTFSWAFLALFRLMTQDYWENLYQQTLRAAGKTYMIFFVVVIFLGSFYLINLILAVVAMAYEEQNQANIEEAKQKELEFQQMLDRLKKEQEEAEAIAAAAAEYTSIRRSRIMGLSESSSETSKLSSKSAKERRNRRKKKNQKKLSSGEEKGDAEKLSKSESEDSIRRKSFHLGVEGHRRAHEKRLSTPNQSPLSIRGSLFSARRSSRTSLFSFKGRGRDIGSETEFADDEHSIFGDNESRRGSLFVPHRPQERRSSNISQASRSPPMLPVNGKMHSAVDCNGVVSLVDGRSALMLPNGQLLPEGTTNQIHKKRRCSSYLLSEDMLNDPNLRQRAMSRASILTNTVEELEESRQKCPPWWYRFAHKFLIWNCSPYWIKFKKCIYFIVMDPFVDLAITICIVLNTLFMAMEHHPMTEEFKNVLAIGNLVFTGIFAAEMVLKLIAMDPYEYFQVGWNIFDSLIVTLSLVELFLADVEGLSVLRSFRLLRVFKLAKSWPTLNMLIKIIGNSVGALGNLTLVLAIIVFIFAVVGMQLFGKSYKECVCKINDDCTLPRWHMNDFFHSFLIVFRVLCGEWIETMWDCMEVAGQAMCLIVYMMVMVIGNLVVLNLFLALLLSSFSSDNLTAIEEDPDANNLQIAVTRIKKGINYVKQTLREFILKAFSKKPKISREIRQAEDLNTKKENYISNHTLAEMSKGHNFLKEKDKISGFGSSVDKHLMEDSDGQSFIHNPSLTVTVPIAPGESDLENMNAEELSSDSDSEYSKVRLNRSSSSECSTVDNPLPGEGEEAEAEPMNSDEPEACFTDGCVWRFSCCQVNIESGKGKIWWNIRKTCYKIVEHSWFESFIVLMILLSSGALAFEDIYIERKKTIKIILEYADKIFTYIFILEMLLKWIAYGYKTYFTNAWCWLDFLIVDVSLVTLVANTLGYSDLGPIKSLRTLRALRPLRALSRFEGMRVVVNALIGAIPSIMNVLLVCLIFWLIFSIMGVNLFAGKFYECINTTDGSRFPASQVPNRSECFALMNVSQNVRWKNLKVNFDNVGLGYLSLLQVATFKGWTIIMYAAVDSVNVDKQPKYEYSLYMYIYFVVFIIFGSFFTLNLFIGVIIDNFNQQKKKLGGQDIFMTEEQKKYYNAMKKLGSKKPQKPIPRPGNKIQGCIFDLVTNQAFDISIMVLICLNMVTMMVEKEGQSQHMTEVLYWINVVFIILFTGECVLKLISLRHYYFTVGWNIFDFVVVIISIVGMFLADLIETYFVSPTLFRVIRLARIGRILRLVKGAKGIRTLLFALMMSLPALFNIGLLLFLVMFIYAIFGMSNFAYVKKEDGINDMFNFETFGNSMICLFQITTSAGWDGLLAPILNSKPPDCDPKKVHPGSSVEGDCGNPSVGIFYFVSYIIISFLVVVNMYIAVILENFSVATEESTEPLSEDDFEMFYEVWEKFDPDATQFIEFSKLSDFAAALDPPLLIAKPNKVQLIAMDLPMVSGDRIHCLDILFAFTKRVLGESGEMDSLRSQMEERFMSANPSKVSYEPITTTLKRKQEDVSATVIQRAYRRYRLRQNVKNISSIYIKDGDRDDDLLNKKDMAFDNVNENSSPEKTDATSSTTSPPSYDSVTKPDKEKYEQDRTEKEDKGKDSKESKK
human Nav1.7, sequence (Q15858 other isoform, or with tags, fused parts or gaps): as above

Structure (SMILES) | IC50 (human Nav1.7) [µM] | Ki (hNav1.7) [µM]
CC(C)Cn1ccc2cc(-c3cccc(S(=O)(=O)Nc4ncns4)n3)ccc21 [Compound 41, 6-(1-isobutyl-1H-indol-5-yl)-N-(1,2,4-thiadiazol-5-yl)pyridine-2-sulfonamide] | 0.514 ± 0.054 | 0.322 ± 0.113
NC(=O)c1cc(N[C@H]2CCNC2=O)nc(-c2ccc3ncn(-c4ccc(C(F)(F)F)cc4)c3c2)n1 [Compound 44, (S)-6-((2-oxopyrrolidin-3-yl)amino)-2-(1-(4-(trifluoromethyl)phenyl)-1H-benzo[d]imidazol-6-yl)pyrimidine-4-carboxamide] | 1.72 ± 0.156 | 1.54 ± 0.446
O=C(Nc1ccc(C(F)(F)F)cc1)c1cc(N[C@H]2CCNC2=O)nc(-c2ccc3[nH]ccc3c2)n1 [Compound 78, (S)-2-(1H-indol-5-yl)-6-((2-oxopyrrolidin-3-yl)amino)-N-(4-(trifluoromethyl)phenyl)pyrimidine-4-carboxamide] | 1.83 ± 0.459 | 1.28 ± 0.48
NC(=O)c1cccc(-c2ccc3c(cnn3Cc3ccc(C(F)(F)F)cc3)c2)n1 [Compound 105, 6-(1-(4-(trifluoromethyl)benzyl)-1H-indazol-5-yl)picolinamide] | 0.897 ± 0.114 | 0.7 ± 0.049
OC[C@@H](O)c1cccc(-c2cnc3c(ccn3Cc3ccc(C(F)(F)F)cc3)c2)n1 [Compound 106, (S)-1-(6-(1-(4-(trifluoromethyl)benzyl)-1H-pyrrolo[2,3-b]pyridin-5-yl)pyridin-2-yl)ethane-1,2-diol] | 1.33 ± 0.164 | 0.286 ± 0.027
OC[C@@H](O)c1cccc(-c2ccc3c(cnn3Cc3ccc(C(F)(F)F)cc3)c2)n1 [Compound 107, (S)-1-(6-(1-(4-(trifluoromethyl)benzyl)-1H-indazol-5-yl)pyridin-2-yl)ethane-1,2-diol] | 1.09 ± 0.077 | 0.534 ± 0.032
NC(=O)c1cc([C@@H](O)CO)cc(-c2ccc3c(ccn3Cc3ccc(C(F)(F)F)cc3)c2)n1 [Compound 120, (R)-4-(1,2-dihydroxyethyl)-6-(1-(4-(trifluoromethyl)benzyl)-1H-indol-5-yl)picolinamide] | 1.91 ± 0.458 | 2.03 ± 0.608
NC(=O)c1cc(-c2ccc3c(ccn3Cc3ccc(C(F)(F)F)cc3)c2)cc([C@H](O)CO)n1 [Compound 123, (S)-6-(1,2-dihydroxyethyl)-4-(1-(4-(trifluoromethyl)benzyl)-1H-indol-5-yl)picolinamide] | 1.52 ± 0.152 | 1.02 ± 0.368
CC(C)Cn1ccc2cc(-c3cccc([C@H](O)[C@@H](O)C(N)=O)n3)ccc21 [Compound 150, (2R,3S)-2,3-dihydroxy-3-(6-(1-isobutyl-1H-indol-5-yl)pyridin-2-yl)propanamide] | 1.38 ± 0.146 | 0.678 ± 0.172
NC(=O)[C@H](O)[C@@H](O)c1cccc(-c2ccc3c(ccn3CC3CC3)c2)n1 [Compound 154, (2R,3S)-3-(6-(1-(cyclopropylmethyl)-1H-indol-5-yl)pyridin-2-yl)-2,3-dihydroxypropanamide] | 10 to 20 | 27.2 ± 8.2
CC(C)Cn1ncc2cc(-c3cccc([C@H](O)[C@@H](O)C(N)=O)n3)ccc21 [Compound 155, (2R,3S)-2,3-dihydroxy-3-(6-(1-isobutyl-1H-indazol-5-yl)pyridin-2-yl)propanamide] | > 20 | 10.6 ± 3.9
